Laboratory results as given in publication PMC5653750, “hiPSC-CM Monolayer Maturation State Determines Drug Responsiveness in High Throughput Pro-Arrhythmia Screen” (Scientific Reports, 2017).

Legend:
[1] = system: fetal-like hiPSC-CM monolayers; experiment: 96-well optical mapping of action potentials (FluoVolt), fetal-like monolayers; type: cell-based, human; details: for Maximum APD 80 Prolongation Risk Score (Fetal-like hiPSC-CM): maximal effect on APD independent of dose, APD80 divided by vehicle control APD80, 30 min treatment, concentrations up to 10 µM; for effect on action potential duration (APD80), fetal-like monolayers: spontaneous action potentials, result in words
Source text: (§1) hiPSC-CMs were used from two different commercial sources: Cellular Dynamics International (CDI, Madison WI) and Cellartis (Takara Bio USA). Custom made 96-well plates with inserts of PDMS (Polydimethylsiloxane) were generated essentially as before. PDMS vulcanized silicone transparent sheeting was obtained from SMI (Specialty Manufacturing, Inc, Saginaw, MI) with 40D (D, Durometer or ≈1000 kPa) hardness and 9 mm diameter coverslips were cut out to fit in each well of 96 well plates. PDMS coverslips were manually added to each well of 96 well plates (Corning) and each plate was subsequently sterilized via ethylene oxide sterilization. PDMS coverslips were then matrigel-coated (500 μg/mL; BD Biosciences, San Jose, CA) prior to plating hiPSC-CMs. Thawing and plating of cryopreserved vials of cells into 96-well plates was as essentially described before. Briefly, 5 × 10^4 cells were plated per well and allowed to form continuous monolayers and maintained in RPMI (Life Technologies) media supplemented with B27 + insulin (Life Technologies). Monolayers were maintained in culture for seven days before electrophysiological testing. Immature fetal-like hiPSC-CM monolayers were generated in 96 well plates without the PDMS coverslip inserts. Fetal-like hiPSC-CMs were also plated on matrigel coated plastic bottoms.
(§2) Optical mapping was performed as essentially described recently[22] with slight modification. A schematic of the 96-well plate optical mapping set up is shown in supplemental Fig. 1. In this assay a 96-well plate is positioned below a high speed CCD camera (200 fps, 80 × 80 pixels) on a heating block to enable recording at physiological temperature (37 °C). hiPSC-CM monolayers were loaded with the membrane potential dye called FluoVolt™ which is commercially available (ThermoFisher Scientific, F10488). Blue LED illumination was used and spontaneous or electrically excited action potentials were recorded with the CCD camera via appropriate emission filter (515 nm, green light, Chroma). For calcium flux quantification monolayers were loaded with fluo-4AM (10 µM). In this assay a 6 × 6 array of wells (supplemental Fig. 1C, 36 wells total) in the 96-well plate could be imaged simultaneously to enable rapid dose response data for all compounds using up to six different doses. Post-acquisition data analysis was done using custom software (Scroll)[22],[25] with automated peak detection capability and automated repolarization quantification to determine APD80 (action potential at 80% of repolarization). […] In some experiments electrical pacing was done to control for rate of activations (supplemental Fig. 3). A custom made frame of field stimulation electrodes was engineered to enable electrical pacing to the 6 × 6 array of wells.
(§3) Action potentials were recorded in the presence of each test compound.
(§4) The effect of each compound to prolong or shorten the APD80 of hiPSC-CM monolayers was quantified relative to vehicle control values obtained in each plate. In other words, the APD80 or CaTD80 quantified at each concentration of each compound was divided by the APD80 or CaTD80 quantified for vehicle control wells. Risk score values were quantified for both fetal-like and mature hiPSC-CM monolayers.

[2] = system: mature hiPSC-CM monolayers; experiment: 96-well optical mapping of action potentials (FluoVolt), mature monolayers; type: cell-based, human; details: for Maximum APD 80 Prolongation Risk Score (Mature hiPSC-CM): maximal effect on APD independent of dose, APD80 divided by vehicle control APD80, 30 min treatment, concentrations up to 10 µM; for effect on action potential duration (APD80), mature monolayers: spontaneous action potentials, result in words
Source text: as §1, §2, §3, §4

[3] = design: method as in PMID 26893184; details: cited from earlier work
[4] = system: fetal-like hiPSC-CM monolayers; experiment: Calcium flux optical mapping (fluo-4AM), fetal-like monolayers; type: cell-based, human; details: dose response; n = 4 per dose
Method: (§5) Optical mapping was performed as essentially described recently[22] with slight modification. A schematic of the 96-well plate optical mapping set up is shown in supplemental Fig. 1. In this assay a 96-well plate is positioned below a high speed CCD camera (200 fps, 80 × 80 pixels) on a heating block to enable recording at physiological temperature (37 °C). hiPSC-CM monolayers were loaded with the membrane potential dye called FluoVolt™ which is commercially available (ThermoFisher Scientific, F10488). Blue LED illumination was used and spontaneous or electrically excited action potentials were recorded with the CCD camera via appropriate emission filter (515 nm, green light, Chroma). For calcium flux quantification monolayers were loaded with fluo-4AM (10 µM). […] Post-acquisition data analysis was done using custom software (Scroll)[22],[25] with automated peak detection capability and automated repolarization quantification to determine APD80 (action potential at 80% of repolarization). […]
(§6) Nilotinib is an anti-cancer kinase inhibitor compound with possible side effects to prolong the QT interval. […] In Fig. 7 calcium transients were recorded using fluo-4AM loaded monolayers to study the effect of nilotinib on intracellular calcium flux dynamics. […]

[5] = system: mature hiPSC-CM monolayers; experiment: Calcium flux optical mapping (fluo-4AM), mature monolayers; type: cell-based, human; details: dose response; n = 4 per dose
Method: as §5, §6

Row | SMILES | Maximum APD 80 Prolongation Risk Score (Fetal-like hiPSC-CM) [1] | effect on action potential duration (APD80), fetal-like monolayers [1] | Maximum APD 80 Prolongation Risk Score (Mature hiPSC-CM) [2] | effect on action potential duration (APD80), mature monolayers [2] | also measured
1 | CCCCc1oc2ccccc2c1C(=O)c1cc(I)c(OCCN(CC)CC)c(I)c1 [Amiodarone, amiodarone] | 0.91 | shortened action potential duration | 1.34 | prolong the APD | –
2 | CC(C)COCC(CN(Cc1ccccc1)c1ccccc1)N1CCCC1 (stereo not shown) [Bepridil, bepridil] | – | – | 1.64 | – | CiPA risk class for causing Torsade de Pointes (TdP) [3]: high risk
3 | COc1cc(N)c(Cl)cc1C(=O)NC1CCN(CCCOc2ccc(F)cc2)CC1OC (stereo not shown) [Cisapride, cisapride] | 1.49 | – | 1.15 | – | CiPA risk class for causing Torsade de Pointes (TdP) [3]: intermediate risk
4 | CN1CCN(C2=Nc3cc(Cl)ccc3Nc3ccccc32)CC1 [Clozapine, clozapine] | 1.14 | – | 1.33 | – | –
5 | COc1ccc([C@@H]2Sc3ccccc3N(CCN(C)C)C(=O)[C@@H]2OC(C)=O)cc1 [Diltiazem, diltiazem] | 0.97 | – | – | – | –
6 | CN(CCOc1ccc(NS(C)(=O)=O)cc1)CCc1ccc(NS(C)(=O)=O)cc1 [Dofetilide, dofetilide] | 2.14 | – | – | did not have as severe action potential duration prolongation | action potential duration alternans, fetal-like monolayers ([1]; electrical pacing 1 Hz, 100 nM): action potential duration alternans were apparent; action potential duration alternans, mature monolayers ([2]; electrical pacing 1 Hz, 100 nM): not in the mature hiPSC-CM monolayers
7 | COc1cccc2c1C(=O)c1c(O)c3c(c(O)c1C2=O)C[C@@](O)(C(=O)CO)C[C@@H]3O[C@H]1C[C@H](N)[C@H](O)[C@H](C)O1 [Doxorubicin, doxorubicin] | 1.15 | – | 1.15 | – | –
8 | CNCCC(Oc1ccc(C(F)(F)F)cc1)c1ccccc1 (stereo not shown) [Fluoxetine, fluoxetine] | 1 | did not detect any APD80 prolongation | – | prolonged the action potential duration | monolayers in which quiescence was caused ([1]; 10.0 µmol L^−1, 8/8 monolayers): 100%; spontaneous beating frequency, fetal-like monolayers ([1]; sub-maximal doses (below 10.0 µmol L^−1)): nor alteration of the spontaneous beating frequency; spontaneous beating rate, mature monolayers [2]: slowed the spontaneous beating rate; quiescence, mature monolayers ([2]; any concentration tested (up to 10.0 µmol L^−1)): did not induce quiescence at any concentration tested; lowest concentration tested, at which action potential duration was already prolonged ([2]; mature monolayers): 1.0 nmol/L
9 | Cc1cn(-c2cc(NC(=O)c3ccc(C)c(Nc4nccc(-c5cccnc5)n4)c3)cc(C(F)(F)F)c2)cn1 [Nilotinib, nilotinib] | 1.36 | APD prolongation was detected | 1.29 | APD prolongation was detected | calcium transient duration 80 (CaTD80), fetal-like monolayers [4]: increased calcium transient duration 80 (CaTD80) in a dose dependent manner; calcium transient duration 80 (CaTD80), mature monolayers [5]: increased calcium transient duration 80 (CaTD80) in a dose dependent manner
10 | C=C[C@H]1C[N@@]2CC[C@H]1C[C@@H]2[C@@H](O)c1ccnc2ccc(OC)cc12 [Quinidine, quinidine] | 1.91 | – | 1.81 | – | –
11 | CC/C(=C(\c1ccccc1)c1ccc(OCCN(C)C)cc1)c1ccccc1 [Tamoxifen, tamoxifen] | 1.12 | – | 1.04 | – | –
12 | CC(C)(C)c1ccc(C(O)CCCN2CCC(C(O)(c3ccccc3)c3ccccc3)CC2)cc1 (stereo not shown) [Terfenadine, terfenadine] | 1.43 | more sensitive | 1.21 | – | CiPA risk class for causing Torsade de Pointes (TdP) [3]: intermediate risk
